Results taken from patent US10710984B2, “N-[(Pyrimidinylamino)propanyl]-and N-[(Pyridinylamino)-propanyl]arylcarboxamides” (Boehringer Ingelheim International GmbH, priority 2016, dated 2020).

Legend:
human orexin 2 receptor = molecular target: T1, human orexin 2 receptor (Homo sapiens, UniProt O43614); test: Assay B: in vitro testing of OX2R potency, OX2R IP1; format: cell-based; conditions: Table 4a; 0.5 nM Orexin A
T1 construct: CHO-K1 cells stably expressing the full-length human orexin 2 receptor and the aequorin photoprotein; expressed in transfected cells; host or cells: CHO-K1 (CHO-K1/hOx2)
T1 sequence (O43614 1-444): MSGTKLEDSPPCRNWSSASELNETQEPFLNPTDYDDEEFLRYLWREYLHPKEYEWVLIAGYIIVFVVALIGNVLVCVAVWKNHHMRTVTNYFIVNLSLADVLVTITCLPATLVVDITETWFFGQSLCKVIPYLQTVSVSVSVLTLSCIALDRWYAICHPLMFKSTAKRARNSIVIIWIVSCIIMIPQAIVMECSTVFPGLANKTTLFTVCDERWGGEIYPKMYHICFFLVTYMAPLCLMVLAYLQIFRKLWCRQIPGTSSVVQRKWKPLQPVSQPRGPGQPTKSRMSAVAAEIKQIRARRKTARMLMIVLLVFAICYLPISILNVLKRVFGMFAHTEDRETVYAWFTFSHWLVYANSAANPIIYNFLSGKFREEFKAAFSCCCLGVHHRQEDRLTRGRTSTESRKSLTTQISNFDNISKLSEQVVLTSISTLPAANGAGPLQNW
Source text: Activation of the orexin receptors expressed in cell lines results in an increase in intracellular IP3 concentration. IP1, a downstream metabolite of IP3, accumulates in cells following receptor activation and is stable in the presence of LiCl. Using Homogeneous Time-Resolved Fluorescence technology with Lumi4-Tb cryptate (commercially available from Cisbio Bioassay) and a suitable fluorescence plate reader. […] Chem. Genomics 2009, 3, 22-32. This technique is used to characterize pharmacological modification of the orexin receptors.
B. In Vitro Testing of OX2R Potency: OX2R IP1
IP1 measurements are performed in CHO-K1 cells stably expressing the full-length human orexin 2 receptor and the aequorin photoprotein. Cells are cultivated in Ham's nutrient mixture F12 medium with 10% fetal calf serum, in a 37° C., 95% humidity and 5% CO2 incubator. The CHO-K1/hOx2 cell mass is expanded to larger cell numbers. The cells are obtained as frozen cells in cryo-vials and stored until use at −150° C. The viability of the cells after thawing is >90%. In preparation for the assay, 24 hours before the assay, the cells are thawed at 37° C. and immediately diluted with cell culture medium. After centrifugation, the cell pellet is re-suspended in medium and then distributed into the assay plates with a density of 5000 cells/25 μL per well. The plates are incubated for one hour at room temperature to reduce edge effects before they are incubated for 24 hours at 37° C./5% CO2. Compounds are prepared by a 8-point serial dilution in DMSO and a final dilution step into assay buffer (HBSS with 20 mM HEPES, 0.1% BSA and 50 mM LiCl, pH 7.4) to ensure a final DMSO concentration of 1% in the assay. On the day of the assay, cells in the plate are washed twice with 60 μL assay buffer (20 μL buffer remained in the wells after washing), followed by adding 5 μL per well of compounds diluted in assay buffer. After 15 minutes of incubation at room temperature 5 μL per well of Orexin A peptide (final concentration: 0.5 nM) dissolved in assay buffer is added to the assay plate. The assay plate is incubated for 60 minutes at 37° C. Then 5 μL per well of Anti-IP1-Cryptate Tb solution and 5 μL per well of IP1-d2 dilution are added to all well of the plate and the plate is incubated for a further 60 minutes light protected at room temperature. The emission at 615 nm and 665 nm (Excitation wavelength: 320 nm) are measured using an EnVision reader (PerkinElmer). The ratio between the emission at 665 nm and 615 is calculated by the reader.
8-point four parametric non-linear curve fitting and determination of IC50 values and Hill slopes is performed using a regular analysis software e.g. AssayExplorer (Accelrys). In order to establish an agonist concentration independent parameter, Kb values are calculated using the following equation: IC50/((2+(A/EC50)^n)^1/n−1) (with A=concentration agonist, EC50=EC50 agonist, n=Hill slope agonist) (see P. Leff, I. G. Dougall, Trends Pharmacol. Sci. 1993, 14(4), 110-112).
Kb values from Assay A (OX1R) and Assay B (OX2R) can then provide a selectivity ratio which is independent of the agonist (Orexin A) concentration.

human Orexin 1 receptor = molecular target: T2, human Orexin 1 receptor (Homo sapiens, UniProt O43613); test: Assay A: in vitro testing of OX1R potency, OX1R IP1; format: cell-based; conditions: Table 4a; 50 nM Orexin A
T2 construct: CHO-K1 cells stably expressing the full-length human Orexin 1 receptor and the aequorin photoprotein; expressed in transfected cells; host or cells: CHO-K1 (CHO-K1/hOx1)
T2 sequence (O43613 1-425): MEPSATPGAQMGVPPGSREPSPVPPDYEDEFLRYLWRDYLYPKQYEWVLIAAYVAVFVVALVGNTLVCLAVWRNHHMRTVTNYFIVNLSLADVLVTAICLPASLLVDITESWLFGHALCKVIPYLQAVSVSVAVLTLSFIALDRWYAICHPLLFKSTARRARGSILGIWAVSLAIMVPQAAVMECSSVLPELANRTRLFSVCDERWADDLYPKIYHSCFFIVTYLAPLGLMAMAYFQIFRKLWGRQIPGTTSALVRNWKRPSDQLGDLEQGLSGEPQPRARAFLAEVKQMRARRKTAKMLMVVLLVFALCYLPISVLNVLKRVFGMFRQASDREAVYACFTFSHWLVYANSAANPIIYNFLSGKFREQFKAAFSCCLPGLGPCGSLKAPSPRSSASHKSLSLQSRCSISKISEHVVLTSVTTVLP

[1] = Assay D: assessment of log P; format: physicochemical
Protocol: The assay was performed following the description by S. F. Donovan and M. C. Pescatore in J. Chromatogr. A 952 (2002) 47-61.

human MDR1 P-gp = molecular target: T3, human MDR1 P-gp (Homo sapiens, UniProt P08183); test: Assay C: efflux in MDCK cells transfected with the human MDR1 gene; format: in vitro ADME; conditions: MDCK-MDR1 cell monolayers, pH 7.4, 37° C., read-out: MDCK efflux ratio (BA/AB)
T3 construct: expressed in transfected cells; host or cells: MDCK (MDCK-MDR1)
T3 sequence (P08183 whole entry): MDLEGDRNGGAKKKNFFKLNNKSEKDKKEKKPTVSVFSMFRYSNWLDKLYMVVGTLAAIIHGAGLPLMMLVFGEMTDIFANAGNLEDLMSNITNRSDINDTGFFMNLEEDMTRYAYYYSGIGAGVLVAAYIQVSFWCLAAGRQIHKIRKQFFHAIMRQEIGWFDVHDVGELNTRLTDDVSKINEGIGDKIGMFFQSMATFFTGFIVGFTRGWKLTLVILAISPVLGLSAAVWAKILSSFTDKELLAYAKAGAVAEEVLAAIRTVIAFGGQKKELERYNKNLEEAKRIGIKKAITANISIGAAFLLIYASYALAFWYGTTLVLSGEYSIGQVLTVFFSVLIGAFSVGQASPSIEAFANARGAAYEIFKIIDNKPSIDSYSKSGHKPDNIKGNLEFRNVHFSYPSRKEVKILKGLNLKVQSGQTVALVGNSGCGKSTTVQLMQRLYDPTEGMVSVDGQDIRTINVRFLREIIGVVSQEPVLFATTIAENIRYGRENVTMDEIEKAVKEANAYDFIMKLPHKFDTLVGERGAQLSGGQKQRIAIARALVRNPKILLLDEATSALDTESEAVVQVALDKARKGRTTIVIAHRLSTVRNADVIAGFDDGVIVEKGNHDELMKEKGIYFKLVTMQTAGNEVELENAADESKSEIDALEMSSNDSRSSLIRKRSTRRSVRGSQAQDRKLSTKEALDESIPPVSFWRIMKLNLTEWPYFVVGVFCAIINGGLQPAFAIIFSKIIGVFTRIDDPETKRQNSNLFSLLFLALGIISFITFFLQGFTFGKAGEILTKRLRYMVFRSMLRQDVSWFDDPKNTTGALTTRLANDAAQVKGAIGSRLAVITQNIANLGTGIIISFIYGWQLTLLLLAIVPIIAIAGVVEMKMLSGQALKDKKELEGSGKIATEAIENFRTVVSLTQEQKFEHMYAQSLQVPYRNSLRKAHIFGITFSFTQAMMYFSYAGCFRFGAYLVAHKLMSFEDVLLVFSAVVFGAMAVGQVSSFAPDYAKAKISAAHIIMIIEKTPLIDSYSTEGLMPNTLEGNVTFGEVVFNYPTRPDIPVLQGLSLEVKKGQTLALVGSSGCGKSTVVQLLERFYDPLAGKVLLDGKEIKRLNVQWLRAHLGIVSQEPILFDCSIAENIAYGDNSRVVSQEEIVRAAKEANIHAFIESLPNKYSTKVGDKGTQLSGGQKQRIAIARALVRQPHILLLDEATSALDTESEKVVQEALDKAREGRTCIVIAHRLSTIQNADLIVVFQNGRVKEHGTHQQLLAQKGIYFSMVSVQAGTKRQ
Protocol: C. Assessment of Efflux in Madin-Darby Canine Kidney (MDCK) Cells Transfected with the Human MDR1 Gene
Apparent permeability coefficients (PE) of the compounds across the MDCK-MDR1 cell monolayers are measured (pH 7.4, 37° C.) in apical-to-basal (AB) and basal-to-apical (BA) transport direction. AB permeability (PEAB) represents drug absorption from the blood into the brain and BA permeability (PEBA) drug efflux from the brain back into the blood via both passive permeability as well as active transport mechanisms mediated by efflux and uptake transporters that are expressed on the MDCK-MDR1 cells, predominantly by the overexpressed human MDR1 P-gp. The compounds are assigned to permeability/absorption classes by comparison of the AB permeabilities with the AB permeabilities of reference compounds with known in vitro permeability and oral absorption in the human. Identical or similar permeabilities in both transport directions indicate passive permeation, vectorial permeability points to additional active transport mechanisms. Higher PEBA than PEAB indicates the involvement of active efflux mediated by MDR1 P-gp. Active transport is concentration-dependently saturable.
MDCK-MDR1 cells (1-2×10e5 cells/1 cm2 area) are seeded on filter inserts (Costar transwell polycarbonate or PET filters, 0.4 μm pore size) and cultured (DMEM) for 7 days. Subsequently, the MDR1 expression is boosted by culturing the cells with 5 mM sodium butyrate in full medium for 2 days. Compounds are dissolved in appropriate solvent (like DMSO, 1-20 mM stock solutions). Stock solutions are diluted with HTP-4 buffer (128.13 mM NaCl, 5.36 mM KCl, 1 mM MgSO4, 1.8 mM CaCl2, 4.17 mM NaHCO3, 1.19 mM Na2HPO4×7H2O, 0.41 mM NaH2PO4—H2O, 15 mM HEPES, 20 mM glucose, 0.25% BSA, pH 7.4) to prepare the transport solutions (0.1-300 μM compound, final DMSO<=0.5%). The transport solution (TL) is applied to the apical or basolateral donor side for measuring A-B or B-A permeability (3 filter replicates), respectively. The receiver side contains the same buffer as the donor side. Samples are collected at the start and end of experiment from the donor and at various time intervals for up to 2 hours also from the receiver side for concentration measurement by H PLC-MS/MS or scintillation counting. Sampled receiver volumes are replaced with fresh receiver solution.

OX2R = molecular target: T4, OX2R (Homo sapiens, UniProt O43614); test: OX2R assay of WO2016/034882, Table 3 (Method B); conditions: read-out: OX2R IC50 (corresponds to pIC50) (converted)
T4 sequence (O43614 1-444): T1 sequence (O43614 1-444)

OX1R = molecular target: T5, OX1R (Homo sapiens, UniProt O43613); test: OX1R assay of WO2016/034882, Table 3 (Method B); conditions: read-out: OX1R IC50 (corresponds to pIC50) (converted)
T5 sequence (O43613 1-425): T2 sequence (O43613 1-425)

SMILES | Kb (human orexin 2 receptor) [nM] | Kb (human Orexin 1 receptor) [nM] | chromatographic logP [1] | efflux ratio (human MDR1 P-gp) | IC50 (OX2R) [nM] | IC50 (OX1R) [nM]
CCN(C(=O)c1cccc(F)c1-n1nccn1)[C@@H](C)CNc1ncc(C(F)(F)F)cc1F [Example 16] | 7.6 | 0.014 | 2 to 4 | < 3 | – | –
CCN(C(=O)c1nccc(C(F)(F)F)c1-c1ccn(C)n1)[C@@H](C)COc1ccc(C(F)(F)F)cn1 [Example 19] | 26.2 | 0.114 | 2 to 4 | < 3 | – | –
CCN(C(=O)c1ccc(OC)cc1-n1nccn1)[C@@H](C)CNc1ncc(C(F)(F)F)cn1 [Example 20] | 115 | 0.091 | 2 to 4 | < 3 | – | –
CC[C@@H](CNc1ccc(C(F)(F)F)cn1)N(CC)C(=O)c1nc(C)ccc1-n1nccn1 [drawing 9] | – | – | – | – | 320 | –
CC[C@@H](CNc1ncc(C(F)(F)F)cn1)N(C)C(=O)c1nc(C)ccc1-c1ncccn1 [drawing 11] | – | – | – | – | – | 1.9
CC[C@@H](CNc1ncc(C(F)(F)F)cn1)N(C)C(=O)c1c(F)cccc1-n1nccn1 [drawing 12] | – | – | – | – | ≥ 7950 | –
